How the values were obtained:
[1] = molecular target: T1, hDP/Gqs5 (Homo sapiens, UniProt Q13258); assay: FLIPR calcium signal, hDP; assay type: cell-based; conditions: read-out: Other Receptors (EC50 in nM) hDP
T1 construct: expressed in transfected cells; host or cells: HEK-293(EBNA)
T1 sequence (Q13258 1-359): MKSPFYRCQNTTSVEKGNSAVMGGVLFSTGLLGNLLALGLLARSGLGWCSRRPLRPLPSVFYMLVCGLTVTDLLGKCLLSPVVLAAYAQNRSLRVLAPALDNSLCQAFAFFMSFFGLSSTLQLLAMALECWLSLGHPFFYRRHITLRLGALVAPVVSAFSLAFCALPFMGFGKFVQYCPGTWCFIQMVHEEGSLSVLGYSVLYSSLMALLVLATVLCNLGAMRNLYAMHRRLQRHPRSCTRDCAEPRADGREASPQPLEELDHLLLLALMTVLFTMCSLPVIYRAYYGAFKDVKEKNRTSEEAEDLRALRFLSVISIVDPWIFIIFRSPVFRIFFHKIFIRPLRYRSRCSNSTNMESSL
Description: (§1) HEK-293(EBNA) cells, stably expressing one type or subtype of recombinant human prostaglandin receptors (prostaglandin receptors expressed: hDP/Gqs5; hEP1; hEP2/Gqs5; hEP3A/Gqi5; hEP4/Gqs5; hFP; hIP; hTP), were cultured in 100 mm culture dishes in high-glucose DMEM medium containing 10% fetal bovine serum, 2 mM l-glutamine, 250 μg/ml geneticin (G418) and 200 μg/ml hygromycin B as selection markers, and 100 units/ml penicillin G, 100 μg/ml streptomycin and 0.25 μg/ml amphotericin B.
(§2) Cells were seeded at a density of 5×10^4 cells per well in Biocoat® Poly-D-lysine-coated black-wall, clear-bottom 96-well plates (Becton-Dickinson) and allowed to attach overnight in an incubator at 37° C. Cells were then washed two times with HBSS-HEPES buffer (Hanks Balanced Salt Solution without bicarbonate and phenol red, 20 mM HEPES, pH 7.4) using a Denley Cellwash plate washer (Labsystems). After 45 minutes of dye-loading in the dark, using the calcium-sensitive dye Fluo-4 […] at a final concentration of 2 μM, plates were washed four times with HBSS-HEPES buffer to remove excess dye leaving 100 μl in each well. Plates were re-equilibrated to 37° C. for a few minutes.
(§3) Cells were excited with an Argon laser at 488 nm, and emission was measured through a 510-570 nm bandwidth emission filter (FLIPR™, Molecular Devices, Sunnyvale, Calif.). Drug solution was added in a 50 μl volume to each well to give the desired final concentration. The peak increase in fluorescence intensity was recorded for each well. On each plate, four wells each served as negative (HBSS-HEPES buffer) and positive controls (standard agonists: BW245C (hDP); PGE2 (hEP1; hEP2/Gqs5; hEP3A/Gqi5; hEP4/Gqs5); PGF2α (hFP); carbacyclin (hIP); U-46619 (hTP), depending on receptor). The peak fluorescence change in each drug-containing well was then expressed relative to the controls.
(§4) Compounds were tested in a high-throughput (HTS) or concentration-response (CoRe) format. In the HTS format, forty-four compounds per plate were examined in duplicates at a concentration of 10^−5 M. To generate concentration-response curves, four compounds per plate were tested in duplicates in a concentration range between 10^−5 and 10^−11 M. The duplicate values were averaged. In either, HTS or CoRe format each compound was tested on at least 3 separate plates using cells from different passages to give an n≧3.

[2] = molecular target: EP2 (Homo sapiens, UniProt P43116); assay: Competition binding [3H]PGE2, EP2 Ki; parameters: expressed in transfected cells; host or cells: HEK 293; conditions: [3H]PGE2 competition, HEK 293 cells expressing human EP2
Sequence of EP2 (P43116 whole entry): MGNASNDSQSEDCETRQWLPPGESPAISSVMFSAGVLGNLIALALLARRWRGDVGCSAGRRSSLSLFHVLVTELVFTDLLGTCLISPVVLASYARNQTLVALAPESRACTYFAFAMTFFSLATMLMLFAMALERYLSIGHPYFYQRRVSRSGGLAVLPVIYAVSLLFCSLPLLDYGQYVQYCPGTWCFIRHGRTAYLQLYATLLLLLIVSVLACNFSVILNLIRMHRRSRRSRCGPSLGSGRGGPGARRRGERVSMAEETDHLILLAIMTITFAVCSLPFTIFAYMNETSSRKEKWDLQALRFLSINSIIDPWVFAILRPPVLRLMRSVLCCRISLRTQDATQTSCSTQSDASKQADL
Description: Competition binding experiments were performed in a medium containing Hank's balanced salt solution, Hepes 20 mM, pH 7.3, membranes (˜60 μg protein) or 2×10^5 cells from HEK 293 cells stably expressing human EP2 receptors, [^3H]PGE2 (10 nM) and various concentrations of test compounds in a total volume of 300 μl. Reaction mixtures were incubated at 23° C. for 60 min, and were filtered over Whatman GF/B filters under vacuum. Filters were washed three times with 5 ml ice-cold buffer containing 50 mM Tris/HCl (pH 7.3). Non-specific binding was estimated in the presence of excess unlabeled PGE2 (10 μM). Binding data fitted to the binding model for a single class of binding sites, using nonlinear regression analysis. IC50 values thus obtained were converted to Ki using the equation of Ki=(IC50/(1+[L]/KD) where [L] represents PGE2 concentration (10 nM) and KD the dissociation constant for [^3H]PGE2 at human EP2 receptors (40 nM).
HEK-293 cells stably expressing the human or feline FP receptor, or EP1, EP2, or EP4 receptors were washed with TME buffer, scraped from the bottom of the flasks, and homogenized for 30 sec using a Brinkman PT 10/35 polytron. TME buffer was added to achieve a final 40 ml volume in the centrifuge tubes (the composition of TME is 100 mM TRIS base, 20 mM MgCl2, […]; 10N HCl is added to achieve a pH of 7.4).
The cell homogenate was centrifuged at 19000 r.p.m. for 20 min at 4° C. using a Beckman Ti-60 rotor. The resultant pellet was resuspended in TME buffer to give a final 1 mg/ml protein concentration, as determined by Biorad assay. Radioligand binding competition assays vs. [^3H-]17-phenyl PGF2α (5 nM) were performed in a 100 μl volume for 60 min. Binding reactions were started by adding plasma membrane fraction. The reaction was terminated by the addition of 4 ml ice-cold TRIS-HCl buffer and rapid filtration through glass fiber GF/B filters using a Brandel cell harvester. The filters were washed 3 times with ice-cold buffer and oven dried for one hour.
[^3H-] PGE2 (specific activity 180 Ci mmol) was used as the radioligand for EP receptors. [^3H] 17-phenyl PGF2α was employed for FP receptor binding studies. Binding studies employing EP1, EP2, EP4 and FP receptors were performed in duplicate in at least three separate experiments. A 200 μl assay volume was used. Incubations were for 60 min at 25° C. and were terminated by the addition of 4 ml of ice-cold 50 mM TRIS-HCl, followed by rapid filtration through Whatman GF/B filters and three additional 4 ml washes in a cell harvester (Brandel). Competition studies were performed using a final concentration of 5 nM [^3H]-PGE2, or 5 nM [^3H] 17-phenyl PGF2α and non-specific binding determined with 10^−5M of unlabeled PGE2, or 17-phenyl PGF2α, according to receptor subtype studied.

[3] = molecular target: T2, hFP (Homo sapiens, UniProt P43088); assay: FLIPR calcium signal, hFP; assay type: cell-based; conditions: read-out: Other Receptors (EC50 in nM) hFP
T2 construct: expressed in transfected cells; host or cells: HEK-293(EBNA)
T2 sequence (P43088 whole entry): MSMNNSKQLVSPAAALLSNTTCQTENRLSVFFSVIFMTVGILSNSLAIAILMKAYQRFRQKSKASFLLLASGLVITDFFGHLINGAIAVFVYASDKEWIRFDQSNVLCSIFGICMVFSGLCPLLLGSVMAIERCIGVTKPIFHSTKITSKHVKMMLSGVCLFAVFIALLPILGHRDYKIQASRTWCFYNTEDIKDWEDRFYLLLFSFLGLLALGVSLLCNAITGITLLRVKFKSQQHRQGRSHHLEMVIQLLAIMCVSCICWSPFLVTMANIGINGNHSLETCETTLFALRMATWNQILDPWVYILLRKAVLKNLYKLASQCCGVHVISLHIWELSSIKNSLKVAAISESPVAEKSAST
Description: as §1
Cells were seeded at a density of 5×10^4 cells per well in Biocoat® Poly-D-lysine-coated black-wall, clear-bottom 96-well plates (Becton-Dickinson) and allowed to attach overnight in an incubator at 37° C. Cells were then washed two times with HBSS-HEPES buffer (Hanks Balanced Salt Solution without bicarbonate and phenol red, 20 mM HEPES, pH 7.4) using a Denley Cellwash plate washer (Labsystems). […]
Cells were excited with an Argon laser at 488 nm, and emission was measured through a 510-570 nm bandwidth emission filter (FLIPR™, Molecular Devices, Sunnyvale, Calif.). […] The peak increase in fluorescence intensity was recorded for each well. […] The peak fluorescence change in each drug-containing well was then expressed relative to the controls. […]

[4] = molecular target: T3, hEP4/Gqs5 (Homo sapiens, UniProt P35408); assay: FLIPR calcium signal, EP4; assay type: cell-based; conditions: HEK-293(EBNA) cells
T3 construct: expressed in transfected cells; host or cells: HEK-293(EBNA)
T3 sequence (P35408 whole entry): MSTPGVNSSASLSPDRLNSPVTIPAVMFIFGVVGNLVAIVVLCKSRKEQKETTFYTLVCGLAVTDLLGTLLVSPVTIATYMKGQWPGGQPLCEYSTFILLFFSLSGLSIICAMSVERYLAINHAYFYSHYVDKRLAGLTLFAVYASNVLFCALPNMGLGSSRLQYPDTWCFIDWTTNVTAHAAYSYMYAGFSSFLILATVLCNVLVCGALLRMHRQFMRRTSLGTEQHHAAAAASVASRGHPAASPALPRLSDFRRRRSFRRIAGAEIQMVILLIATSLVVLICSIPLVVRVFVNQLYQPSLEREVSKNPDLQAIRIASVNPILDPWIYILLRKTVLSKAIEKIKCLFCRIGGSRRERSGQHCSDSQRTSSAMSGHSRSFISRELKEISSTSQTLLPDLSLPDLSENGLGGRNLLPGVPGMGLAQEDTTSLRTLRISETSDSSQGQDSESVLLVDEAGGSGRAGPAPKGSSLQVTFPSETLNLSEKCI
Description: as §1, §2, §3, §4

Compound | EC50 [1] [nM] | Ki [2] [µM] | EC50 [3] [nM] | EC50 [4] [µM]
O=C(O)c1ccc(CCC[C@@H]2[C@@H](CCc3cc(Cl)cc(Cl)c3)[C@@H](O)C[C@H]2Cl)s1 [compound 17, 5-(3-((1R,2R,3S,5R)-5-chloro-2-(3,5-dichlorophenethyl)-3-hydroxycyclopenty)propyl)thiophene-2-carboxylic acid] | > 10000 | 0.022 | > 10000 | 
O=C(O)c1ccc(CCC[C@@H]2[C@@H](CCc3cc(F)cc(F)c3)[C@H](O)C[C@H]2Cl)s1 [11d, 5-(3-((1R,2R,3R,5R)-5-chloro-2-(3,5-difluorophenethyl)-3-hydroxycyclopentyl)propyl)thiophene-2-carboxylic acid] | 12700 | 0.002 |  | > 10
